In ChEMBL document CHEMBL3526086, “Identification of the oxidative and conjugative enzymes involved in the biotransformation of brivanib” (Drug Metab Dispos, 2012):

Assays:
Format in all cases: ADME
[1] = target: T1, Cytochrome P450 3A4 (Homo sapiens, UniProt P08684); assay: Drug metabolism assessed as human CYP3A4-mediated (R)-1-(4-(4-fluoro-2-(hydroxymethyl)-1H-indol-5-yloxy)-5-methylpyrrolo[1,2-f][1,2,4]triazin-6-yloxy)propan-2-ol formation at 2 and 20 uM for 20 mins by LC/MS analysis in presence of NADPH; conditions: recombinant enzyme
[2] = target: T1, Cytochrome P450 3A4; assay: Activity of human CYP3A4 assessed as intrinsic clearance for enzyme-mediated (R)-1-(4-(4-fluoro-2-(hydroxymethyl)-1H-indol-5-yloxy)-5-methylpyrrolo[1,2-f][1,2,4]triazin-6-yloxy)propan-2-ol formation per picomole enzyme in presence of NADPH
[3] = target: T2, Cytochrome P450 2C9 (Homo sapiens, UniProt P11712); assay: Drug metabolism assessed as human CYP2C9-mediated (R)-1-(4-(4-fluoro-2-(hydroxymethyl)-1H-indol-5-yloxy)-5-methylpyrrolo[1,2-f][1,2,4]triazin-6-yloxy)propan-2-ol formation at 2 and 20 uM for 20 mins by LC/MS analysis in presence of NADPH; conditions: recombinant enzyme
[4] = target: T2, Cytochrome P450 2C9; assay: Drug metabolism in human liver microsomes assessed as monoclonal antibody-mediated inhibition of CYP2C9-mediated (R)-1-(4-(4-fluoro-2-(hydroxymethyl)-1H-indol-5-yloxy)-5-methylpyrrolo[1,2-f][1,2,4]triazin-6-yloxy)propan-2-ol formation at 2 and 20 uM for 30 mins by LC/MS analysis; conditions: 0.5 h
[5] = system: Liver microsome; assay: Drug level in human liver microsomes assessed as compound formation treated with 2 uM [14C]brivanib alaninate for 60 mins by LC/MS analysis in presence of NADPH; conditions: 1 h
[6] = target: T3, Cytochrome P450 2B6 (Homo sapiens, UniProt P20813); assay: Drug metabolism in human liver microsomes assessed as 50 uM orphenadrine-mediated inhibition of CYP2B6-mediated (R)-1-(4-(4-fluoro-2-(hydroxymethyl)-1H-indol-5-yloxy)-5-methylpyrrolo[1,2-f][1,2,4]triazin-6-yloxy)propan-2-ol formation at 2 and 20 uM for 30 mins by LC/MS analysis; conditions: 0.5 h
T3 sequence (P20813 whole entry): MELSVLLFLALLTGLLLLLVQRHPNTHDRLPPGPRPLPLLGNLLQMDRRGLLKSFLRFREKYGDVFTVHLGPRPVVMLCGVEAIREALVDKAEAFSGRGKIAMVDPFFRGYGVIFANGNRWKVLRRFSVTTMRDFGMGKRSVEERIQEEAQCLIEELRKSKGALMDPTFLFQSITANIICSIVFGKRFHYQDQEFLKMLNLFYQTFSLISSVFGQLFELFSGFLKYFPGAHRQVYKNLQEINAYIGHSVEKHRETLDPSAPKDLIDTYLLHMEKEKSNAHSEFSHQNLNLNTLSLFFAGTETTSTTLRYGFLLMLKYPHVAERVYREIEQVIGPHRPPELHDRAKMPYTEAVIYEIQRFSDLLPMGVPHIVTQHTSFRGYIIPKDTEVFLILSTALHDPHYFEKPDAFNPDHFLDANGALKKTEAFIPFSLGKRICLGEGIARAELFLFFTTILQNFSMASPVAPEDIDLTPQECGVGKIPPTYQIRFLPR

[7] = target: Cytochrome P450 2C19 (Homo sapiens, UniProt P33261); assay: Drug metabolism in human liver microsomes assessed as monoclonal antibody-mediated inhibition of CYP2C19-mediated (R)-1-(4-(4-fluoro-2-(hydroxymethyl)-1H-indol-5-yloxy)-5-methylpyrrolo[1,2-f][1,2,4]triazin-6-yloxy)propan-2-ol formation at 2 and 20 uM for 30 mins by LC/MS analysis; conditions: 0.5 h
[8] = system: Liver microsome; assay: Drug metabolism in human liver microsomes assessed as (R)-1-(4-(4-fluoro-2-(hydroxymethyl)-1H-indol-5-yloxy)-5-methylpyrrolo[1,2-f][1,2,4]triazin-6-yloxy)propan-2-ol formation at 2 and 20 uM for 30 mins by LC/MS analysis in presence of antibody for CYP1A2; conditions: 0.5 h
[9] = target: Sulfotransferase 1A3 (Homo sapiens, UniProt P0DMM9); assay: Drug metabolism assessed as human SULT1A3-mediated (R)-1-(4-(4-fluoro-2-methyl-1H-indol-5-yloxy)-5-methylpyrrolo[1,2-f][1,2,4]triazin-6-yloxy)propane-2-sulfonic acid formation at 2 and 20 uM for 30 mins by LC/MS analysis in presence of PAPS; conditions: 0.5 h
[10] = target: Sulfotransferase 2A1 (Homo sapiens, UniProt Q06520); assay: Drug metabolism assessed as human SULT2A1-mediated (R)-1-(4-(4-fluoro-2-methyl-1H-indol-5-yloxy)-5-methylpyrrolo[1,2-f][1,2,4]triazin-6-yloxy)propane-2-sulfonic acid formation at 2 and 20 uM for 30 mins by LC/MS analysis in presence of PAPS; conditions: 0.5 h
[11] = target: T3, Cytochrome P450 2B6; assay: Drug metabolism assessed as human CYP2B6-mediated (R)-1-(4-(4-fluoro-2-(hydroxymethyl)-1H-indol-5-yloxy)-5-methylpyrrolo[1,2-f][1,2,4]triazin-6-yloxy)propan-2-ol formation at 2 and 20 uM for 20 mins by LC/MS analysis in presence of NADPH; conditions: recombinant enzyme
[12] = target: T2, Cytochrome P450 2C9; assay: Drug metabolism in human liver microsomes assessed as 10 uM sulfaphenazole-mediated inhibition of CYP2C9-mediated (R)-1-(4-(4-fluoro-2-(hydroxymethyl)-1H-indol-5-yloxy)-5-methylpyrrolo[1,2-f][1,2,4]triazin-6-yloxy)propan-2-ol formation at 2 and 20 uM for 30 mins by LC/MS analysis; conditions: 0.5 h
[13] = Activity of CYP3A4/CYP1A2 in human liver microsomes assessed as enzyme-mediated (R)-1-(4-(4-fluoro-2-(hydroxymethyl)-1H-indol-5-yloxy)-5-methylpyrrolo[1,2-f][1,2,4]triazin-6-yloxy)propan-2-ol formation in presence of NADPH

T2 sequence (P11712 whole entry): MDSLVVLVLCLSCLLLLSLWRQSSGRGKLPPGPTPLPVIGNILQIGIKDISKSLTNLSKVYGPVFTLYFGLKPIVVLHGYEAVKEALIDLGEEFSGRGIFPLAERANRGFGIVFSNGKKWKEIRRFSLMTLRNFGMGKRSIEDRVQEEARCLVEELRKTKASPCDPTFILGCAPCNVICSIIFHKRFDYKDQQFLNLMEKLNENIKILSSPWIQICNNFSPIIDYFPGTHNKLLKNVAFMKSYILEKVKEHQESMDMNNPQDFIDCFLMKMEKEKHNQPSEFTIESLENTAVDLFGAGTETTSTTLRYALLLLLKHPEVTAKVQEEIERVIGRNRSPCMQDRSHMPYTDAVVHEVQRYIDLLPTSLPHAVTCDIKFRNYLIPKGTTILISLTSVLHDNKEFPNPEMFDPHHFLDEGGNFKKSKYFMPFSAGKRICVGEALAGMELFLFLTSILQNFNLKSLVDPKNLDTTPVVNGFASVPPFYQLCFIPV
T1 sequence (P08684 whole entry): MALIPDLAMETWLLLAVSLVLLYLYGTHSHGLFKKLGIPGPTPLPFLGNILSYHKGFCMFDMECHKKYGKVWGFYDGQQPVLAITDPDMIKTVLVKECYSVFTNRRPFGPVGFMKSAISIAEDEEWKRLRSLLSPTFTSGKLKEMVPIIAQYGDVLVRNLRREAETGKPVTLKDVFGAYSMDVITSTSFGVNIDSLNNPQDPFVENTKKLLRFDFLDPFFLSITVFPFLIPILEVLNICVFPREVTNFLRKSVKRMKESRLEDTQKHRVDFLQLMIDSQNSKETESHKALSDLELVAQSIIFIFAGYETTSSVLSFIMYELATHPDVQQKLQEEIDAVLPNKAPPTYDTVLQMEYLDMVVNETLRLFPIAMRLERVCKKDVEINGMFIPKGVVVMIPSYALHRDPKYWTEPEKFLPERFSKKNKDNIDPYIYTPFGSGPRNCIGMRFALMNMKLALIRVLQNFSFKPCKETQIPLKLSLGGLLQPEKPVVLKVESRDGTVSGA
Sequence of Cytochrome P450 2C19 (P33261 whole entry): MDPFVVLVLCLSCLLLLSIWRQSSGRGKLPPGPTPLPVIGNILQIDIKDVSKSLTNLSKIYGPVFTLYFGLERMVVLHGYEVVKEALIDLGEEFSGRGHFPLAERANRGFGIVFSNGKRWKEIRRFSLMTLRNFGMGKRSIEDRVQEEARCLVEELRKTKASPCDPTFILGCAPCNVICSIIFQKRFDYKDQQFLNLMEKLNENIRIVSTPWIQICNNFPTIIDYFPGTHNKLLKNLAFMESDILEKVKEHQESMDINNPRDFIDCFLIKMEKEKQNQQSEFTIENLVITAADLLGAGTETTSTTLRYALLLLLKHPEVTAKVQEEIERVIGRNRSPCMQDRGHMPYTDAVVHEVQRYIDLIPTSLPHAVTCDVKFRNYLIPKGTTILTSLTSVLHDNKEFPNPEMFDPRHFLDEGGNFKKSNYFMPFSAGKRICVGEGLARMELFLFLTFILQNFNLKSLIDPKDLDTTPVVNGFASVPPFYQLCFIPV
Sequence of Sulfotransferase 2A1 (Q06520 whole entry): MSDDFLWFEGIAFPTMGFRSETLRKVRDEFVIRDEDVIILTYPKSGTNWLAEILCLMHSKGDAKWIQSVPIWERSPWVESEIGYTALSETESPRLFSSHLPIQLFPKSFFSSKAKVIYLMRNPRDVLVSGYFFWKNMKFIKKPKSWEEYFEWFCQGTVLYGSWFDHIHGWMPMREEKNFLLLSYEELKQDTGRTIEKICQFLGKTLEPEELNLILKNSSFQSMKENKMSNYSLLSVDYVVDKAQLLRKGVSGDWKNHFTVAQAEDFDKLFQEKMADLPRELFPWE
Sequence of Sulfotransferase 1A3 (P0DMM9 whole entry): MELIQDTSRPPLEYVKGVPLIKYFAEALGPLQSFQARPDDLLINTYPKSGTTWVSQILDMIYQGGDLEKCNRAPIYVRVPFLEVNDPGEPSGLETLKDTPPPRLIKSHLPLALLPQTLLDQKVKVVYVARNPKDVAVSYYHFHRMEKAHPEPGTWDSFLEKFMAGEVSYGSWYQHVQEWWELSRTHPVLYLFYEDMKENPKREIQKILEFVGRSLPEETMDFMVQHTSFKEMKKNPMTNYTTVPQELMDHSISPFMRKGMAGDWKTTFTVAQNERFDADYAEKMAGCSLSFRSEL

In the case of `Cc1cc2c(F)c(Oc3ncnn4cc(OC[C@@H](C)O)c(C)c34)ccc2[nH]1` [BRIVANIB], the Drug metabolism [1] is reported as “metabolite_detected”, the CL [2] is reported as 0.016 µL/min and the Drug metabolism [3] is reported as “metabolite_detected”. For the same compound, the Drug metabolism [4] was “metabolite_detected”, the Drug metabolism [5] was “metabolite_detected” and the Drug metabolism [6] was “metabolite_detected”. For the same compound, the Drug metabolism [7] was “metabolite_detected”, the Drug metabolism [8] was “metabolite_not_detected” and the Drug metabolism [9] was “metabolite_detected”. The Drug metabolism [10] was “metabolite_detected”, the Drug metabolism [11] was “metabolite_detected” and the Drug metabolism [12] was “metabolite_detected”. For the same compound, the Km [13] was 29.1 µM.
